Km and stoichiometry N data for two compounds are collected here from paper PMC5346462 (Biochimie, 2017).

The target of experiment [1] is T1, MiGSTU (Mangifera indica glutathione S-transferase Tau class) (Mangifera indica, UniProt A0A1P8NWC2).
T1 sequence (A0A1P8NWC2 1-229): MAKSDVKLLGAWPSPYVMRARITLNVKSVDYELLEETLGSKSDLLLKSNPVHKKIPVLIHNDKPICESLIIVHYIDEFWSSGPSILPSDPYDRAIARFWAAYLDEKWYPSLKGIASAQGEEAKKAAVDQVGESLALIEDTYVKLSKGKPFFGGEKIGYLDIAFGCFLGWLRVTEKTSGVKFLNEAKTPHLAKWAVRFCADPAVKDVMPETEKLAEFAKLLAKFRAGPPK
Briefly: steady-state enzyme kinetics of the purified enzyme. The class given is biochemical. The settings on record: read-out: CDNB / Km.

The target in experiment [2] is Mangifera indica glutathione S-transferase Tau class (MiGSTU) (mango (Mangifera indica)). Briefly: SEC. A general note: In gel filtration, larger molecules generally elute earlier.

For `O=[N+]([O-])c1ccc(Cl)c([N+](=O)[O-])c1` [CDNB], in experiment [1], the Km came to 792 µM.

One may read the stoichiometry N as the number of molecules, sites or subunits per partner or assembly. The compound “Mangifera indica glutathione S-transferase Tau class (MiGSTU) (enzyme)” displayed a stoichiometry N in experiment [2] of 2.
